The supplement of paper PMC10307832

Assays:
Assay in all cases: relative viability (nuclei count vs DMSO), 5 days (fraction); higher = more cells survive
[1] = tested on: 201T
Outline: (§1)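 Five library-drug doses in √10 steps were combined with a fixed anchor-drug dose, or a single drug was given alone, by pin tool to lung cancer cell lines in 1536-well plates the day after seeding. Nuclei were stained and counted after 5 days. Relative viability is the nuclei count in treated wells over that in vehicle wells, taken as the median of duplicate plates.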

[2] = tested on: BEN
Outline: as §1

[3] = tested on: EMC-BAC-2
Outline: as §1

[4] = tested on: HARA
Outline: as §1

[5] = tested on: LCLC-103H
Outline: as §1

[6] = tested on: LOU-NH91
Outline: as §1

[7] = tested on: NCI-H1395
Outline: as §1

[8] = tested on: NCI-H1993
Outline: as §1

[9] = tested on: NCI-H2023
Outline: as §1

[10] = tested on: NCI-H2087
Outline: as §1

[11] = tested on: NCI-H2126
Outline: as §1

[12] = tested on: NCI-H2347
Outline: as §1

[13] = tested on: NCI-H23
Outline: as §1

[14] = tested on: NCI-H3122
Outline: as §1

[15] = tested on: NCI-H441
Outline: as §1

[16] = tested on: NCI-H596
Outline: as §1

[17] = tested on: NCI-H647
Outline: as §1

[18] = tested on: NCI-H650
Outline: as §1

[19] = tested on: NCI-H727
Outline: as §1

[20] = tested on: NCI-H838
Outline: as §1

COc1cc2nccc(Oc3ccc(NC(=O)Nc4cc(C)on4)c(Cl)c3)c2cc1OC [Tivozanib] + COc1cc2c(Oc3ccc(NC(=O)C4(C(=O)Nc5ccc(F)cc5)CC4)cc3F)ccnc2cc1OCCCN1CCOCC1 [Foretinib] (partner 0.25 µM)
relative viability ([1]; first compound 0.005 µM): 1.14 | relative viability ([1]; first compound 0.01581 µM): 1.15 | relative viability ([1]; first compound 0.05 µM): 1.08 | relative viability ([1]; first compound 0.1581 µM): 1.08 | relative viability ([1]; first compound 0.5 µM): 1.16 | relative viability ([2]; first compound 0.005 µM): 0.559 | relative viability ([2]; first compound 0.01581 µM): 0.789 | relative viability ([2]; first compound 0.05 µM): 0.731 | relative viability ([2]; first compound 0.1581 µM): 0.25 | relative viability ([2]; first compound 0.5 µM): 0.456 | relative viability ([3]; first compound 0.005 µM): 1.03 | relative viability ([3]; first compound 0.01581 µM): 0.952 | relative viability ([3]; first compound 0.05 µM): 1.03 | relative viability ([3]; first compound 0.1581 µM): 0.952 | relative viability ([3]; first compound 0.5 µM): 1.07 | relative viability ([4]; first compound 0.005 µM): 0.859 | relative viability ([4]; first compound 0.01581 µM): 0.855 | relative viability ([4]; first compound 0.05 µM): 0.928 | relative viability ([4]; first compound 0.1581 µM): 0.952 | relative viability ([4]; first compound 0.5 µM): 0.905 | relative viability ([5]; first compound 0.005 µM): 0.905 | relative viability ([5]; first compound 0.01581 µM): 0.809 | relative viability ([5]; first compound 0.05 µM): 0.686 | relative viability ([5]; first compound 0.1581 µM): 0.849 | relative viability ([5]; first compound 0.5 µM): 0.881 | relative viability ([6]; first compound 0.005 µM): 0.874 | relative viability ([6]; first compound 0.01581 µM): 0.974 | relative viability ([6]; first compound 0.05 µM): 0.993 | relative viability ([6]; first compound 0.1581 µM): 0.982 | relative viability ([6]; first compound 0.5 µM): 0.962 | relative viability ([7]; first compound 0.005 µM): 1.04 | relative viability ([7]; first compound 0.01581 µM): 1.01 | relative viability ([7]; first compound 0.05 µM): 1.11 | relative viability ([7]; first compound 0.1581 µM): 0.897 | relative viability ([7]; first compound 0.5 µM): 1.03 | relative viability ([8]; first compound 0.005 µM): 0.632 | relative viability ([8]; first compound 0.01581 µM): 0.712 | relative viability ([8]; first compound 0.05 µM): 0.757 | relative viability ([8]; first compound 0.1581 µM): 0.733 | relative viability ([8]; first compound 0.5 µM): 0.722 | relative viability ([9]; first compound 0.005 µM): 0.856 | relative viability ([9]; first compound 0.01581 µM): 0.703 | relative viability ([9]; first compound 0.05 µM): 0.989 | relative viability ([9]; first compound 0.1581 µM): 0.825 | relative viability ([9]; first compound 0.5 µM): 0.697 | relative viability ([10]; first compound 0.005 µM): 1.04 | relative viability ([10]; first compound 0.01581 µM): 1.12 | relative viability ([10]; first compound 0.05 µM): 1.11 | relative viability ([10]; first compound 0.1581 µM): 0.957 | relative viability ([10]; first compound 0.5 µM): 0.998 | relative viability ([11]; first compound 0.005 µM): 1.24 | relative viability ([11]; first compound 0.01581 µM): 1.11 | relative viability ([11]; first compound 0.05 µM): 1.18 | relative viability ([11]; first compound 0.5 µM): 1.25 | relative viability ([12]; first compound 0.005 µM): 0.905 | relative viability ([12]; first compound 0.01581 µM): 1.09 | relative viability ([12]; first compound 0.05 µM): 0.937 | relative viability ([12]; first compound 0.5 µM): 0.845 | relative viability ([13]; first compound 0.005 µM): 0.907 | relative viability ([13]; first compound 0.01581 µM): 1.04 | relative viability ([13]; first compound 0.05 µM): 1.04 | relative viability ([13]; first compound 0.1581 µM): 0.942 | relative viability ([13]; first compound 0.5 µM): 1.1 | relative viability ([14]; first compound 0.005 µM): 0.913 | relative viability ([14]; first compound 0.01581 µM): 0.962 | relative viability ([14]; first compound 0.05 µM): 0.92 | relative viability ([14]; first compound 0.1581 µM): 1.05 | relative viability ([14]; first compound 0.5 µM): 0.953 | relative viability ([15]; first compound 0.005 µM): 0.838 | relative viability ([15]; first compound 0.01581 µM): 0.893 | relative viability ([15]; first compound 0.05 µM): 1.12 | relative viability ([15]; first compound 0.1581 µM): 1.11 | relative viability ([15]; first compound 0.5 µM): 0.934 | relative viability ([16]; first compound 0.005 µM): 0.697 | relative viability ([16]; first compound 0.01581 µM): 0.915 | relative viability ([16]; first compound 0.05 µM): 0.846 | relative viability ([16]; first compound 0.5 µM): 0.879 | relative viability ([17]; first compound 0.005 µM): 1.05 | relative viability ([17]; first compound 0.01581 µM): 1.28 | relative viability ([17]; first compound 0.05 µM): 1.26 | relative viability ([17]; first compound 0.1581 µM): 1.13 | relative viability ([17]; first compound 0.5 µM): 1.2 | relative viability ([18]; first compound 0.005 µM): 1 | relative viability ([18]; first compound 0.01581 µM): 1.02 | relative viability ([18]; first compound 0.05 µM): 0.994 | relative viability ([18]; first compound 0.1581 µM): 1.02 | relative viability ([18]; first compound 0.5 µM): 0.928 | relative viability ([19]; first compound 0.005 µM): 0.963 | relative viability ([19]; first compound 0.01581 µM): 1.04 | relative viability ([19]; first compound 0.05 µM): 1.32 | relative viability ([19]; first compound 0.1581 µM): 0.853 | relative viability ([19]; first compound 0.5 µM): 0.89 | relative viability ([20]; first compound 0.005 µM): 1.06 | relative viability ([20]; first compound 0.01581 µM): 0.952 | relative viability ([20]; first compound 0.05 µM): 1.05 | relative viability ([20]; first compound 0.5 µM): 1.03
